Key:
[1] = literature value; cited from earlier work
HeLa cells [2] = test: Internalization of Dox in HeLa cells by confocal laser scanning microscopy; format: cell-based, human; conditions: Dox ca. 10 μg/mL, one hour of incubation
Experimental: Dox accumulated in HeLa cells was localized using a Carl Zeiss LSM5 PASCAL confocal laser scanning microscopy (CLSM). The HeLa cells were seeded 1×10^5 per well on cover-slides for 24 h and were then treated with free Dox or Dox-mixed micelles. The concentration of Dox was ca. 10 μg/mL. Dox-mixed micelles were washed with PBS to remove untrapped Dox twice before use. After some time, the cells were washed twice with PBS, and then mounted on a slide with 4 wt % paraformaldehyde for CLSM observation. Fluorescence was observed by confocal microscope at 488 nm for excitation and an LP filter of 590 nm for Dox detection.
The time-dependent fluorescence intensity of Dox after Dox-mixed micelles incubated with human cervical epithelioid carcinoma (HeLa) cells was measured with free Dox (Dox-HCl) being used for comparison. […] Subsequently, the acidic endosomal compartment (ca. pH 5.5-5.0) induced Dox release due to mixed micelle dissociation by VIm protonation.

HeLa cells [3] = test: MTT cytotoxicity test using HeLa cells; format: cell-based, human
Experimental: The Dox activities of free Dox and Dox-mixed micelles were determined by performing cytotoxicity tests using HeLa cells (5×10^3 cell/mL). Cells that survived after incubation were estimated by a tetrazolium dye (MTT) assay. Dox-mPEG-b-P(NnPAAm-co-VIm) micelle was used for comparison. […] The IC50 of free Dox and Dox-loaded micelles are summary in Table 3.
Introducing mPEG-b-PLA into the micelle structure not only decreases mPEG-b-P(NIPAAm-co-VIm) quantity, decreases material cytotoxicity with a positive charge (i.e. VIm), but also stabilizes the micellar structure for biomedical use.

## COc1cccc2c1C(=O)c1c(O)c3c(c(O)c1C2=O)C[C@@](O)(C(=O)CO)C[C@@H]3O[C@H]1C[C@H](N)[C@H](O)[C@H](C)O1 [Free Dox, doxorubicin]
[1]
  pKa: ~7
HeLa cells [2]
  localization of Dox in cells: accumulated in both the nucleus and the cytoplasm
HeLa cells [3]
  Dox activity compared with the Dox-loaded micelles: more potent activity

Reference: patent publication US8299178B2, “Stable micelles formed with diblock copolymers of critical micelle concentration copolymer and temperature-sensitive copolymer” (National Tsing Hua University, priority 2009, dated 2012)
